Data reported in patent US10206916B2, “Cabozantinib salts and their use as anti-cancer agents” (Sandoz AG, priority 2015, dated 2019).
Blank lines part the entries; values can stand above or below the molecule they belong to.

What was measured:
[1] = Dynamic vapour sorption (DVS) with post-DVS XRPD; format: physicochemical; settings: for water up take (weight gain) by DVS: between 20% and 70% RH, ca. 25° C.; for hygroscopicity by DVS: 20% to 70% RH, non-hygroscopic = weight gain of less than 2 weight-%; for Post-DVS XRPD analysis: after DVS sorption/desorption cycle; for hygroscopicity compared with cabozantinib malate: based on DVS isotherm
Description: XRPD analysis was carried out on a Siemens D5000 diffractometer, scanning the samples between 3 and 50 or 30°2-theta. For samples of less than 100 mg, 10-20 mg of material was gently compressed onto a glass disc inserted into an XRPD sample holder. For samples of more than 100 mg, ca. 100 mg of material was gently compressed into a plastic XRPD sample holder to ensure a smooth sample surface, just above the level of the sample holder. The sample was then loaded into the diffractometer running in reflection mode and analyzed using the following experimental conditions. C) Water Content: Dynamic Vapour Sorption (DVS) Approximately 10-20 mg of sample was placed into a vapour sorption balance pan and loaded into a DVS-1 dynamic vapour sorption balance by Surface Measurement Systems. The sample was subjected to a ramping profile from 20-90% relative humidity (RH) at 10% increments, maintaining the sample at each step until a stable weight had been achieved (99.5% step completion). After completion of the sorption cycle, the sample was dried using the same procedure, but all the way down to 0% RH and finally taken back to the starting point of 20% RH. The weight change during the sorption/desorption cycles were plotted, allowing for the hygroscopic nature of the sample to be determined.

[2] = Thermogravimetric/differential thermal analysis (TG/DTA); format: physicochemical
Description: B) Organic Solvent Content: Thermogravimetric Analysis (TGA) Approximately, 5-10 mg of material was accurately weighed into an open aluminium pan and loaded into a simultaneous thermogravimetric/differential thermal analyser (TG/DTA) and held at room temperature. The sample was then heated at a rate of 10° C./min from 25° C. to 300° C. during which time the change in sample weight was recorded along with any differential thermal events (DTA). Nitrogen was used as the purge gas, at a flow rate of 100 cm^3/min.

[3] = cited from earlier work
[4] = reported in WO2010/083414; cited from earlier work
[5] = Aqueous solubility measurement (slurry in deionized water, HPLC analysis); format: physicochemical
Description: HPLC analysis was performed according to the following conditions: • Instrument: Agilent 1100 • Column: Grace Smart RP 185μ 150×4.6 mm • Column Temperature: 30° C. UV wavelength: 249 nm • Injection Volume: 10 μl • Flow Rate: 1.2 ml/min • Mobile Phase A: 0.1% Phosphoric acid • Mobile Phase B: 0.1% Phosphoric acid in acetonitrile • Gradient program: H) Aqueous Solubility Measurements Each salt was individually slurried in deionized water and subjected to shaking for ca. 24 h at ambient temperature (ca. 22° C.). The resulting saturated solutions were filtered and analyzed by HPLC analysis. XRPD analysis was carried out on any solid retained after the solubility experiment.

[6] = listed as cabozantinib succinate Form A, succinate
[7] = listed as crystalline succinate salt of cabozantinib, succinate
[8] = listed as acetate salt, acetate

weight gain relative to cabozantinib succinate Form A ([1]; DVS, 20 to 70% RH): 10 fold | water up take (weight gain) by DVS [1]: 0.3 weight-% | water up take (weight gain) by DVS ([1]; listed as L-malate): about 0.3 weight-% | water up take (weight gain) by DVS ([1]; listed as cabozantinib malate): about 0.3 weight-% | TG/DTA weight loss corresponding to the endotherm in DTA trace at ca. 178° C. ([2]; at ca. 178° C.): C. and 1% loss | TG/DTA weight loss below ca. 178° C. ([2]; below ca. 178° C.): 1.2 weight-% loss
SMILES: COc1cc2nccc(Oc3ccc(NC(=O)C4(C(=O)Nc5ccc(F)cc5)CC4)cc3)c2cc1OC [(L)-malate, reference compound]
solubility compared with cabozantinib free base [3]: enhanced solubility | hygroscopicity as reported [4]: non-hygroscopic

SMILES: COc1cc2nccc(Oc3ccc(NC(=O)C4(C(=O)Nc5ccc(F)cc5)CC4)cc3)c2cc1OC [Cabozantinib, N-{4-[(6,7-dimethoxy-4-quinolinyl)oxy]phenyl}-N′-(4-fluorophenyl)-1,1-cyclopropanedicarboxamide]
solubility (BCS classification) [3]: low solubility

solubility compared to cabozantinib malate ([5]; comparison in words, no malate value printed): improved solubility | solid form after the solubility experiment (XRPD) ([5]; solid retained after solubility experiment): consistent with the input succinate salt | solubility ([5]; thermodynamic from solid, deionized water, shaking ca. 24 h, ambient temperature (ca. 22° C.), HPLC analysis): 164 µg/mL | hygroscopicity by DVS [1]: non-hygroscopic | hygroscopicity compared with cabozantinib malate [1, 6]: less hygroscopic | hygroscopicity compared with cabozantinib malate ([1]; succinate): lower hygroscopicity | water up take (weight gain) by DVS [1, 6]: about 0.03 weight-% | water up take (weight gain) by DVS [1, 7]: ca. 0.03 weight-% | water up take (weight gain) by DVS ([1]; succinate): 0.03 weight-% | TG/DTA weight loss corresponding to the endotherm in the DTA trace at ca. 173° C. ([2]; heating rate 10° C./min, at ca. 173° C., listed as cabozantinib succinate Form A, succinate): ~1 weight-% | TG/DTA weight loss below ca. 173° C. ([2]; heating rate 10° C./min, below ca. 173° C., listed as cabozantinib succinate Form A, succinate): < 0.6 weight-%
SMILES: COc1cc2nccc(Oc3ccc(NC(=O)C4(C(=O)Nc5ccc(F)cc5)CC4)cc3)c2cc1OC.O=C(O)CCC(=O)O [Form A, N-{4-[(6,7-dimethoxy-4-quinolinyl)oxy]phenyl}-N′-(4-fluorophenyl)-1,1-cyclopropanedicarboxamide succinate]
Post-DVS XRPD analysis [1, 6]: remained crystalline and consistent with the input form | Post-DVS XRPD analysis [1, 7]: remained crystalline and was consistent with the input form

hygroscopicity by DVS [1]: non-hygroscopic | Post-DVS XRPD analysis [1, 8]: remained crystalline | hygroscopicity compared with cabozantinib malate [1]: less hygroscopic | water up take (weight gain) by DVS [1, 8]: ~0.1 weight-%
SMILES: CC(=O)O.COc1cc2nccc(Oc3ccc(NC(=O)C4(C(=O)Nc5ccc(F)cc5)CC4)cc3)c2cc1OC [Form A-1, N-{4-[(6,7-dimethoxy-4-quinolinyl)oxy]phenyl}-N′-(4-fluorophenyl)-1,1-cyclopropanedicarboxamide acetate]
Post-DVS XRPD analysis ([1]; acetate): remained crystalline and consistent with the input form
